≈ marks a conversion by molar mass, not a printed value. Calls of active or inactive are those of the source. No cut-off for these calls is given here.
What was measured:
Candida albicans [1] = assay: Fungistatic activity against Candida albicans CHK21 after 24 to 48 hrs by broth microdilution assay; format: functional
Candida albicans [2] = assay: Fungistatic activity against Candida albicans SSK21 after 24 to 48 hrs by broth microdilution assay; format: functional
Candida albicans [3] = assay: Fungicidal activity against wild type Candida albicans CAF2-1 assessed as reduction in cell viability at 4 times MIC of SSK21/CHK21 after 24 hrs; format: functional, organism-based
Candida albicans [4] = assay: Fungicidal activity against Candida albicans SSK23 assessed as reduction in cell viability at MIC of SSK21/CHK21 after 24 hrs; format: functional, organism-based
Candida albicans [5] = assay: Fungicidal activity against Candida albicans CHK23 assessed as reduction in cell viability at 4 times MIC of SSK21/CHK21 after 24 hrs; format: functional, organism-based
Candida albicans [6] = assay: Fungicidal activity against Candida albicans CHK21 assessed as reduction in cell viability at MIC after 24 hrs; format: functional, organism-based
Candida albicans [7] = assay: Fungicidal activity against wild type Candida albicans CAF2-1 assessed as reduction in cell viability at MIC of SSK21/CHK21 after 24 hrs; format: functional, organism-based
Candida albicans [8] = assay: Fungicidal activity against Candida albicans SSK21 assessed as reduction in cell viability at MIC after 24 hrs; format: functional, organism-based
Candida albicans [9] = assay: Fungicidal activity against Candida albicans SSK23 assessed as reduction in cell viability at 4 times MIC of SSK21/CHK21 after 24 hrs; format: functional, organism-based
Candida albicans [10] = assay: Fungicidal activity against Candida albicans CHK23 assessed as reduction in cell viability at MIC of SSK21/CHK21 after 24 hrs; format: functional, organism-based
Candida albicans [11] = assay: Fungistatic activity against Candida albicans CHK23 after 24 to 48 hrs by broth microdilution assay; format: functional
Candida albicans [12] = assay: Fungicidal activity against Candida albicans SSK21 assessed as reduction in cell viability at 4 times MIC after 24 hrs; format: functional, organism-based
Candida albicans [13] = assay: Fungistatic activity against Candida albicans SSK23 after 24 to 48 hrs by broth microdilution assay; format: functional
Candida albicans [14] = assay: Fungicidal activity against Candida albicans CHK21 assessed as reduction in cell viability at 4 times MIC after 24 hrs; format: functional, organism-based
Candida albicans [15] = assay: Ratio of MIC for Candida albicans CHK21 to MIC for Candida albicans SSK21; format: functional
Candida albicans [16] = assay: Fungistatic activity against wild type Candida albicans CAF2-1 after 24 to 48 hrs by broth microdilution assay; format: functional
Candida albicans [17] = assay: Fungistatic activity against Candida albicans SLN1 HK mutant after 24 to 48 hrs by broth microdilution assay; format: functional, organism-based
Candida albicans [18] = assay: Fungistatic activity against Candida albicans SKN7 mutant after 24 to 48 hrs by broth microdilution assay; format: functional, organism-based
Candida albicans [19] = assay: Drug uptake in Candida albicans SSK21 at 3.6 ng/ml after 1 hrs by liquid scintillation counting relative to wild type Candida albicans CAF2-1; format: ADME, organism-based

CC(=O)N1CCN(c2ccc(OCC3COC(Cn4ccnc4)(c4ccc(Cl)cc4Cl)O3)cc2)CC1 (configuration not stated)
Activity (Candida albicans [1]): Active
Activity (Candida albicans [2]): Active

CC[C@H](C)C[C@H](C)CCCCCCCCC(=O)N[C@H]1C[C@@H](O)[C@@H](NCCN)NC(=O)[C@@H]2[C@@H](O)CCN2C(=O)[C@H]([C@H](O)CCN)NC(=O)[C@H]([C@H](O)[C@@H](O)c2ccc(O)cc2)NC(=O)[C@@H]2C[C@@H](O)CN2C(=O)[C@H]([C@@H](C)O)NC1=O
Activity (Candida albicans [1]): Active
Activity (Candida albicans [2]): Active

C[C@@H]1[C@H](O)[C@@H](C)/C=C/C=C/C=C/C=C/C=C/C=C/C=C/[C@H](O[C@@H]2O[C@H](C)[C@@H](O)[C@H](N)[C@@H]2O)C[C@@H]2O[C@](O)(C[C@@H](O)C[C@@H](O)[C@H](O)CC[C@@H](O)C[C@@H](O)CC(=O)O[C@H]1C)C[C@H](O)[C@H]2C(=O)O
Activity (Candida albicans [1]): Active
Activity (Candida albicans [2]): Active

Clc1ccc(COC(Cn2ccnc2)c2ccc(Cl)cc2Cl)c(Cl)c1 (configuration not stated)
Activity (Candida albicans [1]): Active
Activity (Candida albicans [2]): Active

OC(Cn1cncn1)(Cn1cncn1)c1ccc(F)cc1F [FLUCONAZOLE]
Activity (Candida albicans [3]): Active
Activity (Candida albicans [4]): inactive
MIC (Candida albicans [1]): 1 µg/mL (≈ 3.27 µM)
Activity (Candida albicans [5]): Active
Activity (Candida albicans [6]): inactive
Activity (Candida albicans [7]): inactive
Activity (Candida albicans [8]): inactive
MIC (Candida albicans [2]): 0.032 µg/mL (≈ 0.104 µM)
Activity (Candida albicans [9]): Active
Activity (Candida albicans [10]): inactive
MIC (Candida albicans [11]): 16 µg/mL (≈ 52.2 µM)
Activity (Candida albicans [12]): Active
MIC (Candida albicans [13]): 0.25 µg/mL (≈ 0.816 µM)
Activity (Candida albicans [14]): Active
Ratio (Candida albicans [15]): 30
MIC (Candida albicans [16]): 16 µg/mL (≈ 52.2 µM)

C[C@@H](c1ncncc1F)[C@](O)(Cn1cncn1)c1ccc(F)cc1F [VORICONAZOLE]
Activity (Candida albicans [3]): Active
Activity (Candida albicans [4]): inactive
MIC (Candida albicans [1]): 0.015 µg/mL (≈ 0.0429 µM)
Activity (Candida albicans [5]): Active
Activity (Candida albicans [6]): inactive
Activity (Candida albicans [7]): inactive
Activity (Candida albicans [8]): inactive
MIC (Candida albicans [2]): 0.008 µg/mL (≈ 0.0229 µM)
Activity (Candida albicans [9]): Active
Activity (Candida albicans [10]): inactive
MIC (Candida albicans [11]): 1 µg/mL (≈ 2.86 µM)
Activity (Candida albicans [12]): Active
MIC (Candida albicans [13]): 0.064 µg/mL (≈ 0.183 µM)
Activity (Candida albicans [14]): Active
Activity (Candida albicans [17]): Active
Activity (Candida albicans [18]): Active
MIC (Candida albicans [16]): 0.5 µg/mL (≈ 1.43 µM)

[3H]OC(Cn1cncn1)(Cn1cncn1)c1ccc(F)cc1F [[3H]FLUCONAZOLE]
fold change (FC) (Candida albicans [19]): 2
